Measured values reported in patent US10292912B2, “Personal care compositions” (Colgate-Palmolive Company, priority 2015, dated 2019).

Test: Preparation and aging of 3% SnCl2.2H2O solutions with TSPP or TKPP
Type: physicochemical
Conditions: room temperature
Experimental: Solutions are prepared by dissolving TSPP in deionized water (mixing under heat if necessary) and then adding 0.6 g of SnCl2.2H2O to make 20-gram solutions.
A 3% SnCl2.2H2O solution is used as a control.
Solutions are prepared by dissolving TKPP in deionized water (mixing under heat if necessary) and then adding 0.6 g SnCl2.2H2O to make 20-g solutions.

Structure (SMILES): O.O.[Cl][Sn][Cl] [3% SnCl2.2H2O solution, SnCl2.2H2O]
- appearance after aging overnight: form a cloudy precipitate that settles
